Results reported in patent US6716834B2, “Thiochromane derivatives and their use as thrombin inhibitors” (AstraZeneca AB, priority 2000, dated 2004).

Key:
Human thrombin = biological target: T1, Human thrombin (Homo sapiens, UniProt P00734); experiment: Test A: Determination of Thrombin Clotting Time (TT); assay type: biochemical; conditions: concentration of inhibitor that doubles the thrombin clotting time in plasma
T1 construct: purchased Sigma Chem. Co or Hematologic Technologies T 6769
Description: Determination of Thrombin Clotting Time (TT)
The inhibitor solution (25 ? L) is incubated with plasma (25 ? L) for three minutes. Human thrombin (T 6769; Sigma Chem. Co or Hematologic Technologies) in buffer solution, pH 7.4 (25 ? L, 4.0 NIH units/mL), is then added and the clotting time measured in an automatic device (KC 10; Amelung).
The thrombin clotting time (TT) is expressed as absolute values (seconds) as well as the ratio of TT without inhibitor (TT0) to TT with inhibitor (TTi). The latter ratios (range 1-0) are plotted against the concentration of inhibitor (log transformed) and fitted to sigmoidal dose-response curves according to the equation
where: a=maximum range, i.e. 1; s=slope of the dose-response curve; and IC50=the concentration of inhibitor that doubles the clotting time. The calculations are processed on a PC using the software program GraFit Version 3, setting equation equal to: Start at 0, define end=1 (Erithacus Software, Robin Leatherbarrow, Imperial College of Science, London, UK).

[1] = Test G: Metabolic Activation of Prodrug Compounds in vitro; assay type: in vitro ADME, human or rat
Description: Metabolic Activation of Prodrug Compounds in vitro
Prodrug compounds of formula IA are incubated at 37° C. with liver microsomes or 10 000 g (referring to the centrifuge speed) supernatant fractions (i.e. s9 fraction) prepared from human or rat liver homogenate. The total protein concentration in the incubations are 1 or 3 mg/mL dissolved in 0.05 mol/L TRIS buffer (pH 7.4), and with the cofactors NADH (2.5 mmol/L) and NADPH (0. 8 mmol/L) present. The total volume of the incubate is 1.2 mL. The initial prodrug concentrations are 5 or 10 ? mol/L. Samples are collected from the incubate at regular is intervals more than 60 minutes after the start of the incubations. Samples (25 ? L) from the incubate are mixed with an equal volume of human or rat plasma and an appropriate amount of thrombin, and the clotting time (i.e. thrombin time) is measured on a coagulometer (KC 10; Amelung). The amount of “active” thrombin inhibitor formed is estimated by the use of standard curves relating the thrombin time in pooled citrated human or rat plasma to known concentrations of the corresponding “active thrombin inhibitor”.
The amount of “active” thrombin inhibitor is alternatively, or in addition to the above-mentioned method, estimated by the use of LC-MS.

[2] = Test E: Determination of Thrombin Time ex vivo (bioavailability of active inhibitor after prodrug administration); assay type: in vivo; conditions: rat
Text: Determination of Thrombin Time ex vivo
The inhibition of thrombin after oral or parenteral administration of the compounds of formula I, dissolved in ethanol:Solutol3:water (5:5:90), is examined in conscious rats which, one or two days prior to the experiment, are equipped with a catheter for blood sampling from the carotid artery. On the experimental day blood samples are withdrawn at fixed times after the administration of the compound into plastic tubes containing 1 part sodium citrate solution (0.13 mol per L) and 9 parts of blood. The tubes are centrifuged to obtain platelet poor plasma. The plasma is used for determination of thrombin time or ecarin clotting time (ECT) as described below.
The citrated rat plasma, 100 ? L, is diluted with a saline solution, 0.9%, 100 ? […] The clotting time is measured in an automatic device (KC 10, Amelung, Germany). […]
Based on the estimated plasma concentrations of the active thrombin inhibitor (which assumes that thrombin time or ECT prolongation is caused by the aforementioned compound) in the rat, the area under the curve after oral and/or parenteral administration of the corresponding prodrug compound of formula I is calculated (AUCpd) using the trapezoidal rule and extrapolation of data to infinity.
The bioavailability of the active thrombin inhibitor after oral or parenteral administration of the prodrug is calculated as below: […]

SMILES	IC50 (Human thrombin)	further results
COc1cc(Cl)cc2c1[S+]([O-])CCC2(O)C(=O)N1CCC1C(=O)NCc1ccc(C(=N)N)cc1 (single isomer, unassigned) [Example 8, 6-Chloro-4-(R)-hydroxy-8-methoxy-1-(R or S)-oxo-thiochromane-4-yl-C(O)-Aze-PabxTFA]	< 50 nM	
COc1cc(Cl)cc2c1S(=O)(=O)CC[C@]2(O)C(=O)N1CC[C@H]1C(=O)NCc1ccc(C(=N)N)cc1 [Example 1, (R)-6-Chloro-4-hydroxy-8-methoxy-1,1-dioxothiochromane-4-yl-C(O)-Aze-Pab]	< 50 nM	
N=C(N)c1ccc(CNC(=O)[C@@H]2CCN2C(=O)[C@@]2(O)CCS(=O)(=O)c3ccc(Cl)cc32)cc1 [Example 3, (R)-6-Chloro-4-hydroxy-1,1-dioxothiochromane-4-yl-C(O)-Aze-Pab]	< 50 nM	
COc1cc(Cl)cc2c1S(=O)(=O)CC[C@]2(O)C(=O)N1CC[C@H]1C(=O)NCc1ccc(C(N)=NOCc2ccccc2)cc1 [Example 4, (R)-6-Chloro-4-hydroxy-8-methoxy-1,1-dioxothiochromane-4-yl-C(O)-Aze-Pab(OBn)]		oral and/or parenteral bioavailability as the corresponding active inhibitor (free amidine) [1]: exhibit oral and/or parenteral bioavailability in the rat as the corresponding active inhibitor (free amidine)
COc1cc(Cl)cc2c1S(=O)(=O)CC[C@]2(O)C(=O)N1CC[C@H]1C(=O)NCc1ccc(C(N)=NC(=O)OC2CCCC2)cc1 [Example 5, (R)-6-Chloro-4-hydroxy-8-methoxy-1,1-dioxothiochromane-4-yl-C(O)-Aze-Pab(C(O)-O-cyclopentyl)]		oral and/or parenteral bioavailability as the corresponding active inhibitor (free amidine) [1]: exhibit oral and/or parenteral bioavailability in the rat as the corresponding active inhibitor (free amidine)
CON=C(N)c1ccc(CNC(=O)[C@@H]2CCN2C(=O)[C@@]2(O)CCS(=O)(=O)c3c(Cl)cc(Cl)cc32)cc1 [Example 6, (R)-6,8-Dichloro-4-hydroxy-1,1-dioxothiochromane-4-yl-C(O)-Aze-Pab(OMe)]		oral and/or parenteral bioavailability as the corresponding active inhibitor (free amidine) [2]: exhibit oral and/or parenteral bioavailability in the rat as the corresponding active inhibitor (free amidine); oral and/or parenteral bioavailability as the corresponding active inhibitor (free amidine) ([1]; Test G as printed): exhibit oral and/or parenteral bioavailability in the rat as the corresponding active inhibitor (free amidine)
N=C(N)c1ccc(CNC(=O)C2CCN2C(=O)C2(O)CCS(=O)(=O)c3c(OC(F)F)cc(Cl)cc32)cc1 (centres unmarked) [Example 7, 6-Chloro-8-difluoromethoxy-4-hydroxy-1,1-dioxothiochromane-4-yl-C(O)-Aze-Pab]	< 50 nM	
